In patent EP2628734A2, “5-AMINO-1,2,4-THIADIAZOLE DERIVATIVES” (Federalnoe Gosudarstvennoe Bydzhetnoe Uchrezhdenie Nauki …, priority 2010, dated 2012):

Test system: P2 synaptosomal fraction from rat brain cortex
Assay: glutamate-induced uptake of 45Ca2+ isotope into synaptosomes
Format: cell-based
Description: Neuroprotective action of new compounds was studied in P2 synaptosomal fraction from rat brain cortex. 5-amino-3-(2-nitroxypropyl)-1,2,4-thiadiazole derivatives were studied in the test on glutamate-induced uptake of ^45Ca^2+ isotope into synaptosomes.

Compound: CC(Cc1nsc(N2CCN(c3ccccn3)CC2)n1)O[N+](=O)[O-] (centres unmarked) [1-[3-(2-Nitroxypropyl)-[1,2,4]-thiadiazol-5-yl]-4-pyridin-2-yl-piperazine]
- IC50 (glutamate-induced uptake of ^45Ca^2+ into synaptosomes): 16.6 µM
- inhibition at 100 µM (glutamate-induced uptake, concentration of 100 µM, read-out: inhibition of the uptake of ^45Ca^2+ into synaptosomes vs. a control): 98%
